# Experiment: Case study 1, inflammatory bowel disease (ulcerative colitis)
# Format: in vivo, human
# Conditions: same patient, used previously
# Description: A patient with diagnosed ulcerative colitis (one of 2 major forms of IBD) is cited as a case study on the effects of the GOS product, prepared according to Example 1 The patient had suffered from ulcerative colitis for 5 years and was free of medication prior to, and during, the test period. […] The patient had difficulty in digesting foods, was on a standard diet, suffered from nausea, diarrhoea and abdominal pain. The latter was left side large intestine, which correlated with the diagnosis of colitis based inflammation of the descending colon. A total daily GOS dose of 7 g/d (in 2 separate doses) was ingested. Within 4 days of intake, symptoms began to improve. The patient was better able to digest their diet, gut pains began to recede and nausea was reduced. […] The only change to the diet was the addition of GOS. Six weeks later, this effect has been maintained.
compound,measurement,value
O=C(O)c1cc(/N=N/c2ccc(S(=O)(=O)Nc3ccccn3)cc2)ccc1O [sulphasalazine],effect of earlier treatment on ulcerative colitis,no positive effect
